Experimental data taken from patent US4605785A, “1,1-diphenylpropanol derivatives, process for their preparation and pharmaceutical compositions containing them” (Richter Gedeon Vegyeszeti Gyar RT, priority 1982, dated 1986).

Assays:
[1] = system: aniline hydroxylase; test: Aniline hydroxylase activity in liver after treatment; format: in vivo, Female Hann.-Wistar rats; conditions: 24 h after single 40 mg/kg. oral dose; control 20.3 ± 0.88 = 100 ± 4.3%
Experimental: (§1) To evaluate the enzyme inducing activity of the compounds of formula (I) the activity of the polysubstrate monooxygenase enzyme system of the liver, after treatment with placebo and the test compounds, respectively, was also tested. Female Hann.-Wistar rats weighing 50-60 g. each were administered a single 40 mg/kg. dose of the test compounds orally. 24 hours after treatment the animals were decapitated and their livers were eliminated. […] The cytochrome P-450 concentration was determined on the basis of the carbon monoxide differential spectrum of a reduced microsome suspension (Omura T. et al.: J. Biol. Chem. 239, 2370 (1964)). The quantity of cytochrome b-5 was determined from a NaDH differential spectrum (Raw J. et al.: J. Biol. Chem., 234, 1867 (1959)); the activity of NADPH: ferricytochrome C (P-450) reductase (E.C. 1.6.2.4) was measured by the method of Williams C. […] The activity of the aniline hydroxylase from the velocity of the p-amino-phenol formation was determined by the method of R. S. et al.: Toxicol. […] Pharmacol., 22, 50 (1972), while the aminopyrine-demethylase activity was measured by the quantity of the formaldehyde formed, using the method developed by Gourlay G. K. et al.: Biochem. Pharmacol., 27, 965 (1978). The protein content was determined using the method by Lowry O. H. et al.: J. Biochem., 193, 265 (1951). […]

[2] = system: Hann.-Wistar rats; test: Acute toxicity, oral; format: in vivo; conditions: 500 mg./kg. p.o. single dose; 14 days observation
Experimental: (§2) The acute toxicity of the compounds of formula (I) was determined on Hann.-Wistar rats selected from both sexes, weighing 160-180 g. each. The test compounds were administered in a single 500 mg./kg. oral dose. […] The results are set forth in the following Table 3, in which the percentage of the dead animals is indicated.

[3] = system: cytochrome b-5; test: Quantity of cytochrome b-5 in liver after treatment; format: in vivo, Female Hann.-Wistar rats; conditions: 24 h after single 40 mg/kg. oral dose; control 8.6 ± 0.43 = 100 ± 5.0%
Experimental: as §1

[4] = system: aminopyrine demethylase; test: Aminopyrine demethylase activity in liver after treatment; format: in vivo, Female Hann.-Wistar rats; conditions: 24 h after single 40 mg/kg. oral dose; control 254.8 ± 7.47 = 100 ± 2.9%
Experimental: as §1

[5] = Microsomal protein content of liver after treatment (Lowry); format: in vivo, Female Hann.-Wistar rats; conditions: 24 h after single 40 mg/kg. oral dose; control 29.3 ± 1.01 = 100 ± 3.4%
Experimental: as §1

[6] = system: hexabarbital oxidase; test: Hexabarbital sleeping time (hexabarbital oxidase activity in vivo); parameters: species or system Hann.-Wistar rats; conditions: hexabarbital sodium 60 mg./kg. i.v., x ± S.E.; for Hexabarbital sleeping time in %-age of the control, 1 h: 1 h after single 40 mg./kg. oral dose; for Hexabarbital sleeping time in %-age of the control, 24 h: 24 h after single 40 mg./kg. oral dose
Experimental: The enzyme inducing activity was tested by the following methods: The change of hexabarbital oxidase activity was measured on Hann.-Wistar rats weighing 50-60 g. which were administered single 40 mg./kg. doses of the test compounds orally. One and 24 hours after treatment the animals were anaesthetized by a 60 mg./kg. i.v. dose of hexabarbital sodium, and the sleeping time, i.e. the time between the loss of righting reflex and full awakeness was measured (Noordhoex J.: Eur. J. Pharmacol., 3, 242, 1968). As a reference compound phenobarbital was used. The average of the groups and the standard error were determined. The results are given in Table 1, expressed in % of the control.

[7] = system: cytochrome P-450; test: Cytochrome P-450 concentration in liver after treatment; format: in vivo, Female Hann.-Wistar rats; conditions: 24 h after single 40 mg/kg. oral dose; control 12.8 ± 0.63 = 100 ± 4.9%
Experimental: as §1

[8] = Relative weight of liver after treatment; format: in vivo, Female Hann.-Wistar rats; conditions: 24 h after single 40 mg/kg. oral dose; control 4.3 ± 0.17 = 100 ± 3.9%
Experimental: as §1

[9] = system: NADPH: ferricytochrome C (P-450) reductase (E.C. 1.6.2.4); test: Activity of NADPH: ferricytochrome C (P-450) reductase in liver after treatment; format: in vivo, Female Hann.-Wistar rats; conditions: 24 h after single 40 mg/kg. oral dose; control 4868 ± 296.2 = 100 ± 6.1%
Experimental: as §1

[10] = Acute toxicity, oral; format: in vivo, Hann.-Wistar rats; conditions: rat, in vivo, po
Experimental: as §2

[11] = CNS activity (electroshock, metrazole, thiosemicarbazide, strichnine, nicotine spasm, rotating rod, physostigmine lethality, yohimbine potentiation, analgesia); conditions: oral, already at 40 mg./kg.; in words
Experimental: The compounds of the formula (I) and phenobarbital were administered orally, in a dose of 40 mg./kg. and 80 mg./kg.

| SMILES | aniline hydroxylase (nmoles/g. of liver/min.), % of the control [1] | Dead animals (%) [2] | cytochrome b-5 (nmoles/g. of liver), % of the control [3] | aminopyrine demethylase (nmoles/g. of liver/min.), % of the control [4] | microsomal protein (mg./g. of liver), % of the control [5] | Hexabarbital sleeping time in %-age of the control, 1 h [6] | Hexabarbital sleeping time in %-age of the control, 24 h [6] | cytochrome P-450 (nmoles/g. of liver), % of the control [7] | relative weight of liver (g./100 g. of body weight), % of the control [8] | C(P-450) reductase (nmoles/g. of liver/min.), % of the control [9] | mortality at 336 h ([10]; 500 mg./kg. p.o. single dose, 14 days observation, read-out: Dead animals (%)) | LD50 ([10]; footnote to Table 3) | CNS activity (anticonvulsive, muscle coordinating, sedative) [11] |
| --- | --- | --- | --- | --- | --- | --- | --- | --- | --- | --- | --- | --- | --- |
| CCC(O)(c1ccc(F)cc1)c1ccccc1OCc1ccccc1 (stereo not shown) [A, 1-(4-fluorophenyl)-1-(2-benzyloxyphenyl)-propane-1-ol] | 168 ± 8.9% | .phi. | 124 ± 3.8% | 150 ± 11.1% | 109 ± 3.8% | 95 ± 20.2 % of the control | 46 ± 3.5 % of the control | 170 ± 8.8% | 109 ± 2.5% | 155 ± 6.9% | – | – | – |
| CCN(CC)C(=O)COc1ccc(C(O)(CC)c2cccc(C(F)(F)F)c2)cc1 (stereo not shown) [C, 1-(3-trifluoromethylphenyl)-1-[4-(diethylcarbamoylmethoxy)-phenyl]-propane-1-ol] | – | .phi. | – | – | – | 170 ± 10.0 % of the control | 44 ± 2.0 % of the control | – | – | – | – | – | – |
| CCC1(c2ccccc2)C(=O)NC(=O)NC1=O [phenobarbital, reference compound] | – | – | – | – | – | 250 ± 15.8 % of the control | 60 ± 7.3 % of the control | – | – | – | 100% | 254 mg/kg | significant anticonvulsive muscle coordinating and sedative effect |
| CCOC(=O)COc1ccccc1C(O)(CC)c1cccc(Cl)c1 (stereo not shown) [E, 1-(3-chlorophenyl)-1-[2-(ethoxycarbonylmethoxy)-phenyl]propane-1-ol] | – | .phi. | – | – | – | 117 ± 1.1 % of the control | 58 ± 2.4 % of the control | – | – | – | – | – | – |
| CCC(O)(c1cc(C)ccc1C)c1ccccc1OCc1ccccc1 (stereo not shown) [B, 1-(2,5-dimethylphenyl)-1-(2-benzyloxyphenyl)-propane-1-ol] | – | .phi. | – | – | – | 119 ± 7.7 % of the control | 58 ± 8.0 % of the control | – | – | – | – | – | – |
| CCN(CC)C(=O)COc1ccccc1C(O)(CC)c1cccc(Cl)c1 (stereo not shown) [Compound D, 1-(3-chlorophenyl)-1-[2-(diethylcarbamoylmethoxy)-phenyl]-propane-1-ol] | 189 ± 12.3% | .phi. | 122 ± 6.3% | 129 ± 6.0% | 120 ± 6.7% | 139 ± 14.4 % of the control | 50 ± 3.0 % of the control | 199 ± 17.7% | 107 ± 4.4% | 144 ± 11.9% | – | – | – |
